Measurements from a melting point compilation (Tetko et al.).

melting point | Compound
119 to 121 °C | Nc1ccccc1C(O)C(F)(F)F (centres undefined)
88 to 92 °C | COCc1ccc(C(=O)O)cc1
154 to 156 °C | OCc1cnc(-c2ccccc2)[nH]1
176 to 178 °C | Cc1ccc(C(=O)O)cc1S(=O)(=O)N1CCOCC1
212 to 214 °C | O=C(O)c1nn(-c2ccc(Cl)cc2)c2c1CCCCC2
271 to 273 °C | NC(=O)c1ccc(NCC(=O)O)cc1
296 to 298 °C | CCOC(=O)c1sc2nc(N3CCOCC3)[nH]c(=O)c2c1C
179 to 181 °C | Cc1oc2nc(CCl)nc(N)c2c1C
74 to 76 °C | CSc1ccc(N)cc1Cl
176 to 178 °C | O=C(O)C1(O)Cc2ccccc2C1
63 to 65 °C | CCOc1ccc(C(=O)CCl)cc1
174 to 176 °C | CCC(=O)Nc1ccc(C#N)cc1
106 to 108 °C | O=C(O)COc1ccc(F)c(Cl)c1
101 to 103 °C | CCOC(=O)C(C#N)=Cc1ccncc1
239 to 241 °C | CN(C)Cc1ccc(C(=O)O)cc1
299 to 301 °C | O=C(CCCl)Nc1ccc2[nH]c(=O)[nH]c2c1
172 to 174 °C | CC(C)(C)OC(=O)NCCCn1ccc2cc(C(=O)O)ccc21
190 to 195 °C | CC(=O)Nc1ccc2c(CCl)cc(=O)oc2c1
171 to 173 °C | NNc1cn[nH]c(=O)c1Cl
224 to 226 °C | O=C1CCc2cc(Br)c(S(=O)(=O)Cl)cc2N1
254 to 256 °C | O=C1COc2ncccc2N1
54 to 56 °C | N#Cc1ccccc1Oc1ccc(CCl)cc1
81 to 83 °C | OCc1ncc(-c2ccc(F)cc2)o1
133 to 135 °C | COc1cccc2[nH]cc(CC#N)c12

melting point | Compound
238 to 240 °C | CNS(=O)(=O)c1cc(/C=C/C(=O)O)ccc1OC
234 to 236 °C | Nc1ccc(-c2nc3ccc(N)cc3[nH]2)cc1
124 to 126 °C | CCS(=O)(=O)c1ccccc1Oc1ccc(N)cc1
152 to 154 °C | N#Cc1ccc(NC(=O)CCCl)cc1
155 to 157 °C | O=C(O)c1ccn(-c2cccc(C(F)(F)F)c2)n1
122 to 124 °C | O=Cc1cccc(OCc2cccc(C(=O)O)c2)c1
103 to 105 °C | CC(=O)Nc1cccc(C(C)O)c1 (centres undefined)
145 to 147 °C | CCSc1ccc(C(=O)O)cc1
103 to 105 °C | Cc1coc(C=CC(=O)O)n1
101 to 103 °C | CCOC(=O)/C(C#N)=C\Nc1ccc(OC(F)F)cc1
53 to 55 °C | O=C(CCl)NCc1cccc(F)c1
68 to 70 °C | Nc1ccnn1Cc1ccccn1
144 to 146 °C | Cc1ccc(N)cc1S(=O)(=O)Nc1ccc(Cl)cc1
140 to 142 °C | Cc1ccc2c(CC(=O)O)coc2c1
185 to 187 °C | Cn1cccc(C(=O)O)c1=O
119 to 121 °C | CC1CCc2c(sc3ncnc(Cl)c23)C1 (centres undefined)
196 to 198 °C | O=C(O)Cc1csc(NC(=O)c2cccc(O)c2)n1
159 to 161 °C | Nc1cc(F)c(OC2CCCCC2)cc1C(=O)O
211 to 213 °C | CC(Cl)c1nnc(-c2cccs2)o1 (centres undefined)
93 to 95 °C | CC(C)CCNC(=O)NC(=O)CCl
144 to 146 °C | O=c1[nH]nnc2c1cnn2-c1ccccc1
103 to 105 °C | COc1ccc(C(=O)C2CCOCC2)cc1
154 to 156 °C | Cc1csc2nc(CO)cc(=O)n12
84 to 86 °C | O=C(O)C1(O)CCCC1

melting point | Compound
82 to 84 °C | CCC1(CC)CC(=O)NC1=O
121 to 125 °C | CCN(CC)S(=O)(=O)c1ccc(Cl)c(C(=O)O)c1
76 to 80 °C | Cc1cc(C(=O)CCl)c(C)n1-c1ccc(OC(F)(F)F)cc1
109 to 111 °C | Nc1ccc(S(=O)(=O)NCC2CC2)cc1
107 to 109 °C | NNC(=O)CN1CCCc2ccccc21
182 to 184 °C | Cc1cc(C(=O)O)nn1-c1ccccc1
128 to 130 °C | N#Cc1cc(F)ccc1-n1ccc(N)n1
269 to 271 °C | O=C(O)CCCc1nc2ccccc2c(=O)[nH]1
77 to 79 °C | CCOc1ccc(Br)cc1S(=O)(=O)Nc1ccc(N)cc1
213 to 214 °C | O=C(O)c1cccc2[nH]ccc12
51 to 53 °C | CCNC(=O)CC(=O)O
75 to 77 °C | COc1ccc2ocnc2c1
193 to 195 °C | O=C(O)c1cc2c(c(S(=O)(=O)Cl)c1)CCCC2
164 to 166 °C | NN1C(=O)NC2(CCCCC2)C1=O
165 to 167 °C | N#Cc1cnn(-c2nccs2)c1N
91 to 93 °C | Nc1ccc(OCc2ccccn2)c(Cl)c1
131 to 133 °C | O=C(Nc1cocn1)OCC(F)(F)F
196 to 198 °C | Nc1cc(Cl)ncn1
224 to 226 °C | O=C(O)CSc1nnc(-c2ccccc2)n1-c1ccc(Cl)cc1
94 to 96 °C | COC(=O)c1sc(-c2ccccc2)cc1O
185 to 187 °C | O=C(O)Cc1c[nH]c2cc(Cl)ccc12
172 to 174 °C | COc1c(C(=O)O)c(C)nn1C
76 to 80 °C | COc1ccc(-c2noc(CCl)n2)c(OC)c1
58 to 60 °C | COC(=O)c1cc(C)ccc1N

melting point | Compound
134 to 136 °C | CCn1nc(C)c(C(=O)O)c1C(F)F
40 to 42 °C | CCOc1cc(CC#N)ccc1OCC(F)(F)F
246 to 248 °C | Cc1nc(-c2ccc(NC(=O)OCC(F)(F)F)cc2)cc(=O)[nH]1
190 to 192 °C | NNc1ccc(S(N)(=O)=O)cn1
174 to 176 °C | COc1cccc2[nH]cc(CC(=O)O)c12
99 to 101 °C | Nc1ccnc(CO)c1
252 to 254 °C | NC1CCCN(c2cc(C(=O)O)ccn2)C1 (centres undefined)
49 to 51 °C | O=C(Cc1ccc(Cl)cc1)c1ccccn1
141 to 143 °C | Nc1ccc(CC(=O)N2CCCc3ccccc32)cc1
136 to 138 °C | COc1ccc2c(=O)c(-c3ccccc3)c(C)oc2c1
107 to 109 °C | NC1(CO)Cc2ccccc2C1
109 to 111 °C | Cc1csc2ccc(Cl)cc2c1=O
315 to 317 °C | O=C(O)c1ccc2c(c1)[nH]c(=O)n2C1CCCC1
154 to 156 °C | Cc1cc(N)ccc1C(N)=O
198 to 200 °C | Nc1snc2ccc([N+](=O)[O-])cc12
59 to 61 °C | CCC(CC(=O)O)c1ccccc1 (centres undefined)
164 to 166 °C | O=C(O)C1(c2cccc(Br)c2)CCCCC1
170 to 179 °C | Nc1nnc(Cc2ccccc2)s1
233 to 235 °C | CCOC(=O)c1sc2[nH]cnc(=O)c2c1C
165 to 167 °C | CC(=O)NC(CC(=O)O)c1ccccc1 (centres undefined)
117 to 119 °C | CNCc1nc(-c2ccccc2)c[nH]1
139 to 141 °C | COCc1cccc2sc(N)nc12
176 to 178 °C | CN(c1ccccc1)c1ccc(C(=O)O)cn1
174 to 176 °C | Cc1c(F)ccc2sc(N)nc12

melting point | Compound
96 to 98 °C | CC1CCNc2ccccc2N1 (centres undefined)
141 to 143 °C | O=C(O)c1cc(OCC(F)(F)F)cc(OCC(F)(F)F)c1
68 to 70 °C | COC(=O)C(C)(N)C(c1ccccc1)c1ccccc1 (centres undefined)
159 to 161 °C | Cc1cc(N)n(-c2cc(C(F)(F)F)ccc2Cl)n1
55 to 57 °C | O=C(c1ccc(F)cc1)c1cnccn1
172 to 174 °C | Cc1nn(C(C)(C)C)c2nc(C3CC3)cc(C(=O)O)c12
201 to 203 °C | CC(C)(C)NC(=O)CC1(C(=O)O)CCCC1
145 to 147 °C | Cc1ccc(NC(=O)CN(C)C(=O)CCl)cc1
96 to 98 °C | OCc1nc2cc(C(F)(F)F)ccc2s1
152 to 154 °C | Brc1cn2ccnc2c(Br)n1
145 to 147 °C | COC(=O)C(=O)CC(=O)c1cc(F)ccc1F
139 to 141 °C | O=C(O)c1cccc(Br)c1I
209 to 211 °C | O=C(O)c1cc(NS(=O)(=O)c2cccs2)ccc1O
122 to 124 °C | NC(=O)NC(CC(=O)O)c1cccc(Oc2ccccc2)c1 (centres undefined)
153 to 155 °C | Cc1ccccc1Nc1nc(Cl)c(C=O)s1
295 to 297 °C | Cc1ccc(-c2nn(-c3ccccc3)cc2/C=C(\C#N)C(=O)O)cc1
158 to 160 °C | COc1ccc(NC(=O)c2c(N)sc3c2CCCC3)cc1
86 to 88 °C | COCCn1ncc2ccc(N)cc21
176 to 178 °C | Cc1oc(-c2ccco2)nc1CC(=O)O
247 to 249 °C | CNC(C(=O)O)c1cc(F)c(F)c(F)c1 (centres undefined)
171 to 173 °C | OC(c1ccccc1)C1CCNCC1 (centres undefined)
52 to 54 °C | N#CCc1c[nH]c2cc(F)ccc12
61 to 63 °C | CS(=O)(=O)OCC1CCOCC1
204 to 206 °C | O=C(O)C(=Cc1cccs1)n1nnnc1-c1ccccc1

melting point | Compound
65 to 67 °C | COc1cc(C(C)=O)ccc1OC(F)F
153 to 155 °C | O=C(O)Cc1ccc(OCc2ccccn2)cc1
143 to 145 °C | CC(C)(C)c1ccc(CC(C#N)C(N)=O)cc1 (centres undefined)
213 to 215 °C | O=C(O)CSC1=NS(=O)(=O)c2ccccc21
77 to 79 °C | O=C(Cc1ccccc1F)N1CCNCC1
159 to 161 °C | O=C(O)CCc1nnc(-c2ccc(Cl)cc2)o1
106 to 108 °C | C#CCOc1c(Cl)cc(C=O)cc1OC
117 to 119 °C | Cc1noc(C)c1CC(=O)O
180 to 182 °C | Cc1nc2sccn2c1CO
141 to 143 °C | NCc1ccccc1CN1C(=O)NC2(CCCCC2)C1=O
102 to 104 °C | CC(C)(C)C(=O)NCc1ccc(C(=O)CCl)s1
102 to 104 °C | O=C1CCC(Cc2cccc(O)c2)O1 (centres undefined)
90 to 92 °C | COc1ccc(S(=O)(=O)Cl)c(C)c1F
55 to 57 °C | CCOC(=O)Cc1ccc(C(C)=O)cc1
89 to 91 °C | CCc1ccc(C(=O)O)o1
259 to 261 °C | O=C(O)c1ccnc2ncnn12
143 to 145 °C | Nc1ncc(-c2cccc(Cl)c2)s1
159 to 161 °C | O=C(O)c1cn(-c2ccc(F)cc2)nn1
108 to 110 °C | Cc1ccc(C)c(S(=O)(=O)N2CCNCC2)c1
271 to 272 °C | O=C(CCl)Nc1cc(C(F)(F)F)ccc1N1CCCC1

Compound | melting point
N#Cc1ccc(C=CC(=O)O)cc1 | 250 to 252 °C
COc1ccc(C(N)Cc2ccccc2C)cc1OC (centres undefined) | 49 to 51 °C
NCc1nnn[nH]1 | 269 to 271 °C
COc1ccc(Cn2cc(C(=O)O)cn2)cc1 | 132 to 134 °C
